From article PMC6308099, “Suramin, screened from an approved drug library, inhibits HuR functions and attenuates malignant phenotype of oral cancer cells” (Cancer Medicine, 2018) come the findings set out here.

As usually defined, the Kd is a measure of binding affinity in units of concentration.

The target in the assay is T1, HuR (Homo sapiens, UniProt Q15717).
T1 construct: gene ELAVL1; full-length HuR (326 residues)
The assay can be described thus: SPR steady state (Biacore T200, immobilized HuR); supported by concentration-dependent positive DSF shift. It is filed as binding. Background: Surface plasmon resonance follows binding to a sensor surface in real time, without labels.

T1 sequence (Q15717 whole entry): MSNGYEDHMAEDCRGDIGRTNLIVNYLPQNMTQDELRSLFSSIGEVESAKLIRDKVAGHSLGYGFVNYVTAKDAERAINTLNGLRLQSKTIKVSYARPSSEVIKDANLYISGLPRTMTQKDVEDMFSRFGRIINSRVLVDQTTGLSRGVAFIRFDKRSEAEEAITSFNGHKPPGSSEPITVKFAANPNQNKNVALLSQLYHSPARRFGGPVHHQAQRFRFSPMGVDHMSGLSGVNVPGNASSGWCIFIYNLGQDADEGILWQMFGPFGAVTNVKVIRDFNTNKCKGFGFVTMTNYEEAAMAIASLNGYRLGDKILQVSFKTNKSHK

Regarding `Cc1ccc(C(=O)Nc2ccc(S(=O)(=O)O)c3cc(S(=O)(=O)O)cc(S(=O)(=O)O)c23)cc1NC(=O)c1cccc(NC(=O)Nc2cccc(C(=O)Nc3cc(C(=O)Nc4ccc(S(=O)(=O)O)c5cc(S(=O)(=O)O)cc(S(=O)(=O)O)c45)ccc3C)c2)c1` [suramin], the Kd amounted to 240 µM.
